The target in experiment [1] is T1, human recombinant his-tagged HSP90α (Homo sapiens, UniProt P07900).
T1 construct: purchased Prospec Technogene #HSP90
Nature of the experiment: Hsp90 HTRF assay (competition with biotinylated GM for binding to HSP90). The conditions noted are these: bio-GM displacement, 20 h incubation at room temperature, read-out: Inhibitor Activity vs Hsp90. From the text: An HTRF (homogeneous time resolved fluorescence assay) assay was used to measure the interaction of the compounds with HSP90.
The assay measures binding of biotinylated GM (bio-GM; Biomol, #EI-341, lot: A9199a) to human recombinant his-tagged HSP90α (HSP90; Prospec Technogene, #HSP90, lot: 260HSP9001). A signal is generated by fluorescence resonance energy transfer from an Europium-cryptate labeled anti-his antibody (anti-6HIS-Cryptate; Cisbio International, #61HISKLA, lot: 33V) via the HSP90-GM-biotin complex to a fluorescence acceptor (allophycocyanin) linked to streptavidin (SA-XL; Cisbio International, #610SAXLB, lot: 089).
Unlabeled GM or compounds compete with the bio-GM for binding to HSP90 resulting in reduced fluorescence energy transfer/assay signal.
For the assay a preformed (1 h incubation) complex of HSP90 with the anti-his-K is added to the compound solution in a 384 well microplate (Corning, #3710) and incubated for 15 min. A preformed (1 h incubation) complex of bio-GM with the SA-XL was added to the wells and incubated for 20 h. All incubations were performed at room temperature. The final assay volume was 50 μl/well. The final concentrations in the assay were: 50 mM Hepes pH 7.3, 50 mM NaCl, 100 mM KF, 1 mM EDTA, 1 mM DTT, 0.1% Triton-X-100, 1 nM anti-his-K, 40 nM HSP90, 40 nM SA-XL, 40 nM bio-GM. Test compounds were dissolved in DMSO, prediluted in assay buffer and tested at a final concentration between 5000 nM and 0.3 nM. The resulting DMSO concentration was 0.5% and included in all controls. High controls were without test compounds, low controls without test compounds, without HSP90 and without bio-GM. As a reference inhibitor unlabeled GM was used in the same concentrations as the test compounds.
Inhibition was calculated compared to the assay controls using an Excel spreadsheet (Microsoft). IC50 values were calculated by non-linear least squares fitting to the standard dose-response model using GraphPad Prism (GraphPad Software Inc).
A general note: TR-FRET usually uses a lanthanide donor and a delayed reading to cut background.

In another experiment the test system is HCT 116 cell line. Nature of the experiment: Cell inhibition assay (WST-1 cell proliferation, 120 hrs). Type of experiment: cell-based. To be noted: Homo sapiens, HCT-116, 120 hrs, read-out: Inhibitor Activity vs HCT 116 cell line. The method, then: Cells were seeded in 96W tissue culture plates (1 well=30 mm^2) at a density of 500 cells per well in 50 μl of the appropriate culture medium (see below). 24 hrs later 50 μl of the compound prepared in the same medium was added as 4 fold dilutions to give final concentrations in the range 0.15 nM-2500 nM (n=6 for each concentration). The plates were then incubated at 37° C., 5% CO2 for 120 hrs. Cell proliferation was assessed using WST-1 (a metabolic indicator dye, Roche Cat no. 1 644 807) according to the manufacturers instructions. The results were calculated as percentage of vehicle response and IC50 values represent the concentration of compound that inhibited the vehicle response by 50%. HCT-116 Culture Medium—Dulbeccos MEM (Sigma D6546) plus 10% heat inactivated fetal calf serum (Hyclone SH30071 Thermo Fischer Scientific) containing 2 mM Glutamine (Sigma cat no G-7513) and 50 U/ml Penicillin and Streptomycin Sulphate (Sigma Cat no P-0781).
Data were expressed as a percentage inhibition of the control, measured in the absence of inhibitor, as follows: % inhibition=100−((S^i/S^o)×100) where S^i is the signal in the presence of inhibitor and S0 is the signal in the presence of DMSO.
IC50 values were determined by non-linear regression analysis, after fitting the results of eight data points to the equation for sigmoidal dose response with variable slope (% activity against log concentration of compound), using Graphpad Prism® software.
Background: Tetrazolium dyes change colour on reduction, which living cells bring about.

On to `Nc1ncnc2c1nc(Sc1cc3c(cc1I)OCO3)n2CCC[C@@H](N)C(=O)OC1CCCC1` [Example 3, (R)-Cyclopentyl 2-amino-5-(6-amino-8-(6-iodobenzo[d][1,3]dioxol-5-ylthio)-9H-purin-9-yl)pentanoate], for which the IC50 (in experiment [1]; with HCT 116 cell line) was below 1 µM each time. On to `CC(C)(C)OC(=O)[C@@H](N)CCCn1c(Sc2cc3c(cc2I)OCO3)nc2c(N)ncnc21` [Example 5, (S)-tert-Butyl 2-amino-5-(6-amino-8-(6-iodobenzo[d][1,3]dioxol-5-ylthio)-9H-purin-9-yl)pentanoate], for which the IC50 in experiment [1] was below 1 µM; with HCT 116 cell line, 1 to 10 µM. On to `Nc1ncnc2c1nc(Sc1cc3c(cc1I)OCO3)n2CC[C@@H](N)C(=O)OC1CCCC1` [Example 4, (R)-cyclopentyl 2-amino-4-(6-amino-8-(6-iodobenzo[d][1,3]dioxol-5-ylthio)-9H-purin-9-yl)butanoate], for which the IC50 (in experiment [1]; in the experiment on HCT 116 cell line) was below 1 µM in each case. Turning to `Nc1ncnc2c1nc(Sc1ccc3c(c1)OCO3)n2-c1ccc(C[C@H](N)C(=O)OC2CCCC2)cc1` [Example 7, Cyclopentyl 4-{6-amino-8-[(1,3-benzodioxol-5-yl)thio]-9H-purin-9-yl}-L-phenylalaninate], the IC50 in experiment [1] fell in the range of 1 to 10 µM.

Take `Nc1ncnc2c1nc(Sc1cc3c(cc1I)OCO3)n2CC[C@H](N)C(=O)OC1CCCC1` [Example 2, (S)-cyclopentyl 2-amino-4-(6-amino-8-(6-iodobenzo[d][1,3]dioxol-5-ylthio)-9H-purin-9-yl)butanoate]: the IC50 (in experiment [1]; in the experiment on HCT 116 cell line) was below 1 µM each time. For `Nc1ncnc2c1nc(Sc1cc3c(cc1Br)OCO3)n2-c1ccc(C[C@H](N)C(=O)OC2CCCC2)cc1` [Example 8, Cyclopentyl 4-{6-amino-8-[(6-bromo-1,3-benzodioxol-5-yl)thio]-9H-purin-9-yl}-L-phenylalaninate], in experiment [1], the IC50 was in the range of 1 to 10 µM. On to `Nc1ncnc2c1nc(Sc1ccc3c(c1)OCO3)n2-c1ccc(C[C@H](N)C(=O)O)cc1` [Example 13, 4-{6-amino-8-[(1,3-benzodioxol-5-yl)thio]-9H-purin-9-yl}-L-phenylalanine], for which, in experiment [1], the IC50 was 1 to 10 µM.

Consider `Nc1ncnc2c1nc(Sc1cc3c(cc1I)OCO3)n2CCC[C@H](N)C(=O)OC1CCCC1` [Example 1, (S)-Cyclopentyl 2-amino-5-(6-amino-8-(6-iodobenzo[d][1,3]dioxol-5-ylthio)-9H-purin-9-yl)pentanoate], for which the IC50 (in experiment [1]; with HCT 116 cell line) was below 1 µM each time.

With `Nc1ncnc2c1nc(Sc1cc3c(cc1I)OCO3)n2CC[C@H](N)C(=O)O` [Example 10, (S)-2-amino-4-(6-amino-8-(6-iodobenzo[d][1,3]dioxol-5-ylthio)-9H-purin-9-yl)butanoic acid], the IC50 in experiment [1] was below 1 µM. With `Nc1ncnc2c1nc(Sc1cc3c(cc1I)OCO3)n2C[C@H](N)C(=O)OC1CCCC1` [Example 6, Cyclopentyl 3-{6-amino-8-[(6-iodo-1,3-benzodioxol-5-yl)thio]-9H-purin-9-yl}-L-alaninate], the IC50 in experiment [1] is below 1 µM. With `Nc1ncnc2c1nc(Sc1cc3c(cc1I)OCO3)n2CCC[C@H](N)C(=O)O` [Example 9, (S)-2-amino-5-(6-amino-8-(6-iodobenzo[d][1,3]dioxol-5-ylthio)-9H-purin-9-yl)pentanoic acid], the IC50 in experiment [1] is below 1 µM. The same measure, in the same setting: the figure for `Nc1ncnc2c1nc(Sc1cc3c(cc1Br)OCO3)n2-c1ccc(C[C@H](N)C(=O)O)cc1` [Example 14, 4-{6-amino-8-[(6-bromo-1,3-benzodioxol-5-yl)thio]-9H-purin-9-yl}-L-phenyl alanine] is below 1 µM.

These data come from US8217050B2, “Adenine derivative as inhibitors of HSP90 for the treatment of cancer” (Chroma Therapeutics Limited, priority 2006, dated 2012).
